Data: patent publication US6794386B2, “β-amino acid compounds as integrin antagonists” (Bayer Aktiengesellschaft, priority 2000, dated 2004)
Like-named read-outs stand apart in the source and are kept apart here.

Target: T1, VLA-4 (Homo sapiens, UniProt P05556+P13612)
T1 construct: host or cells: Jurkat clone E6-1
Experiment: Adhesion of Jurkat cells to immobilized VCAM-1 (domains 1-3)
Type: cell-based
Set-up: scale not given here
Conditions: adhesion of CFSE-labeled Jurkat cells to recombinant human VCAM-1 (domains 1-3) coated plates, compounds as yielded by solid phase synthesis, purity about 40-90%
How it was run: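 CFSE-labelled Jurkat E6-1 cells in Tris buffer pH 7.4 with 2 mM MnCl2 were added to wells coated with insect-cell-expressed human VCAM-1 domains 1-3 (0.5 μg/ml coating solution); labelled cells were incubated for 30 min at 37 °C with the VLA-4 inhibitor.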

T1 sequence (P13612 34-1032): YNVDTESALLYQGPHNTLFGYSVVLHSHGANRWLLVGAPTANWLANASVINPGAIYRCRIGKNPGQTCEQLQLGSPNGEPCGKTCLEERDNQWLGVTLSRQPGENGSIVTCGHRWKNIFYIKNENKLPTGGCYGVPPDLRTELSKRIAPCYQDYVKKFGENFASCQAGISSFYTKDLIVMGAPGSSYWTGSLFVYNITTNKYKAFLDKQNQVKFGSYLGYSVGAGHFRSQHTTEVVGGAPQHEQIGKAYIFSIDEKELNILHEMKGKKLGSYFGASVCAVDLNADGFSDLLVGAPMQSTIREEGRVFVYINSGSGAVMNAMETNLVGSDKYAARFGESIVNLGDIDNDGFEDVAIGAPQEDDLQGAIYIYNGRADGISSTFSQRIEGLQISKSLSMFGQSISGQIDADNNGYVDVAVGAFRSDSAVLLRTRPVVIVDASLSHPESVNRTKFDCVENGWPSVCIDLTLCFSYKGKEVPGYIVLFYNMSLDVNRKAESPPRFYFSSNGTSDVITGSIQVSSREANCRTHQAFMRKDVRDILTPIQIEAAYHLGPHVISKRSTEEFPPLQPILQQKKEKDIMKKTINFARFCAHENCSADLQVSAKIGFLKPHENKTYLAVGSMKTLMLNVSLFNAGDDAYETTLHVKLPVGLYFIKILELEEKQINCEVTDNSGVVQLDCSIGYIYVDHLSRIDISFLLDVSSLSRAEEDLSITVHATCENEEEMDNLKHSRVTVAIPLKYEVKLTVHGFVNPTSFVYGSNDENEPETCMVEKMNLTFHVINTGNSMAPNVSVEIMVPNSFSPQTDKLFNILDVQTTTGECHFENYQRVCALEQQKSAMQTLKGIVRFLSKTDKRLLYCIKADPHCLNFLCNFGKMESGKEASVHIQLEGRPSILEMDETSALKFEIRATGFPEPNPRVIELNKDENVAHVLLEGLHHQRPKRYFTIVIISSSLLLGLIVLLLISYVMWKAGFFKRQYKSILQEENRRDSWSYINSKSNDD
T1 sequence (P05556 21-798): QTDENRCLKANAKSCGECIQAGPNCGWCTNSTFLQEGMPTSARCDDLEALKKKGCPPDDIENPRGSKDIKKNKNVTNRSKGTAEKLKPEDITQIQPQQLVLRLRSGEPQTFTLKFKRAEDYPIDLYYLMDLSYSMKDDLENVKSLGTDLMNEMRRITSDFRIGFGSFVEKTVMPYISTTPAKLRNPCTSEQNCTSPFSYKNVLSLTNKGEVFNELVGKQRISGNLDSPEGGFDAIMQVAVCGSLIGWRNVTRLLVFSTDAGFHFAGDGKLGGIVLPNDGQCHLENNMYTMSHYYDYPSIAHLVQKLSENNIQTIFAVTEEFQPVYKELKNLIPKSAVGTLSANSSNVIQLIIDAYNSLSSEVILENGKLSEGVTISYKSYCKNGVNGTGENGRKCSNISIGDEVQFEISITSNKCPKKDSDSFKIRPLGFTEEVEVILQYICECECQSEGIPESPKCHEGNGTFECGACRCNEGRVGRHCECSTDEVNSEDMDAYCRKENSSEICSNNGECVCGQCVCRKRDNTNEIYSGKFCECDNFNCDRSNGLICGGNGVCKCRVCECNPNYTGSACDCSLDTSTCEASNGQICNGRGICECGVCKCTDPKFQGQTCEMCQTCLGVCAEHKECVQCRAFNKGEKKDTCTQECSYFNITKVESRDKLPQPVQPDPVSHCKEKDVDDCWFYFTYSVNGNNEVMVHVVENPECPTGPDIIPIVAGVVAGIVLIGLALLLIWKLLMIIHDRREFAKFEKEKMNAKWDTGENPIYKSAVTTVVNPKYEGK

| SMILES | IC50 | IC50 (read-out: IC50) [nM] |
| --- | --- | --- |
| COc1ccc(-c2ccc(C[C@H](NC(=O)C3CCCN(C(=O)c4ccccc4OC)C3)C(=O)O)cc2)cc1 (some centres unmarked) [Example 1.27] | C-D | – |
| O=C(NCC(c1ccccc1)c1ccccc1)Nc1ccc(C[C@H](NC(=O)C2CCCN(C(=O)c3ccccc3F)C2)C(=O)O)cc1 (some centres unmarked) [Example 4.56] | – | 500 to 2000 |
| O=C(N[C@@H](Cc1ccc(-c2cc(Cl)ccc2Cl)cc1)C(=O)O)C1CCCN(C(=O)Cc2ccccc2)C1 (some centres unmarked) [Example 1.49] | C-D | – |
| Cc1ccccc1-c1ccc(C[C@H](NC(=O)C2CCCN(S(=O)(=O)c3c(Cl)cccc3Cl)C2)C(=O)O)cc1 (stereo partly drawn) [Example 1.3, (2S)-2-[({1-[(2,6-dichlorophenyl)sulfonyl]-3-piperidinyl}carbonyl)amino]-3-(2′-methyl[1,1′-biphenyl]-4-yl)propanoic acid] | – | 500 to 2000 |
| CCCNc1ncnc(N2CCCC(C(=O)N[C@@H](Cc3ccc(-c4ccccc4OC)cc3)C(=O)O)C2)c1F (some centres unmarked) [Example 2.55] | – | ≤ 500 |
| O=C(N[C@@H](Cc1ccc(-c2cc(Cl)ccc2Cl)cc1)C(=O)O)C1CCCN(C(=O)C2CCCCC2)C1 (some centres unmarked) [Example 1.53] | C-D | – |
| O=C(N[C@@H](Cc1ccc(NC(=O)N2CCCCC2)cc1)C(=O)O)C1CCCN(C(=O)c2ccc(OC(F)(F)F)cc2)C1 (some centres unmarked) [Example 4.4] | – | 2000 to 10000 |
| Cc1ccccc1-c1ccc(C[C@H](NC(=O)C2CCCN(S(=O)(=O)c3ccccc3C(F)(F)F)C2)C(=O)O)cc1 (some centres unmarked) [Example 1.89] | C-D | – |
| COc1ccc(S(=O)(=O)N2CCCC(C(=O)N[C@@H](Cc3ccc(-c4ccccc4C)cc3)C(=O)O)C2)cc1OC (some centres unmarked) [Example 1.88] | – | 2000 to 10000 |
| O=C(N[C@@H](Cc1ccc(-c2ccccc2)cc1)C(=O)O)C1CCCN(S(=O)(=O)Cc2ccccc2)C1 (some centres unmarked) [Example 1.63] | C-D | – |
| O=C(N[C@@H](Cc1ccc(-c2ccccc2)cc1)C(=O)O)C1CCCN(C(=O)c2ccc3c(c2)OCO3)C1 (some centres unmarked) [Example 1.10] | C-D | – |
| O=C(N[C@H](Cc1ccc(NC(=O)N2CCc3ccccc3C2)cc1)C(=O)O)C1CCCN(C(=O)c2ccc(OC(F)(F)F)cc2)C1 (some centres unmarked) [Example 4.20] | – | 2000 to 10000 |
| COc1ccccc1C(=O)N1CCCC(C(=O)N[C@@H](Cc2ccc(NC(=O)N3CCCCC3)cc2)C(=O)O)C1 (some centres unmarked) [Example 4.12] | – | ≤ 500 |
| Cc1ccc(C(=O)N2CCCC(C(=O)N[C@@H](Cc3ccc(-c4ccccc4)cc3)C(=O)O)C2)cc1 (some centres unmarked) [Example 1.9] | C-D | – |
| COc1ccc(-c2ccc(C[C@H](NC(=O)C3CCCN(C(=O)Cc4c(Cl)cc(C)cc4Cl)C3)C(=O)O)cc2)cc1 (some centres unmarked) [Example 1.25] | C-D | – |
| COc1ccccc1C(=O)N1CCCC(C(=O)N[C@@H](Cc2ccc(NC(=O)NCC(c3ccccc3)c3ccccc3)cc2)C(=O)O)C1 (some centres unmarked) [Example 4.15] | – | 500 to 2000 |
| CN(C)CCCNc1ncnc(N2CCCC(C(=O)N[C@@H](Cc3ccc(NC(=O)N4CCN(c5ccccc5)CC4)cc3)C(=O)O)C2)c1F (some centres unmarked) [Example 5.15] | – | 2000 to 10000 |
| O=C(N[C@@H](Cc1ccc(-c2ccccc2)cc1)C(=O)O)C1CCCN(S(=O)(=O)c2cc(Cl)cc(Cl)c2)C1 (some centres unmarked) [Example 1.64] | C-D | – |
| COc1ccc(-c2ccc(C[C@H](NC(=O)C3CCCN(C(=O)OC4CCCC4)C3)C(=O)O)cc2)cc1 (some centres unmarked) [Example 1.29] | C-D | – |
| Cc1ccc(-c2ccc(C[C@H](NC(=O)C3CCCN(c4ncnc(NC5Cc6ccccc6C5)c4F)C3)C(=O)O)cc2)cc1 (some centres unmarked) [Example 2.11] | C-D | – |
| COc1ccc(S(=O)(=O)N2CCCC(C(=O)N[C@@H](Cc3ccc(-c4ccc(Cl)cc4Cl)cc3)C(=O)O)C2)cc1OC (some centres unmarked) [Example 1.98] | – | 2000 to 10000 |
| CN1CCN(C(=O)Nc2ccc(C[C@H](NC(=O)C3CCCN(c4ncnc(NCc5ccncc5)c4F)C3)C(=O)O)cc2)CC1 (some centres unmarked) [Example 5.31] | – | 500 to 2000 |
| Cc1ccc(-c2ccc(C[C@H](NC(=O)C3CCCN(C(=O)c4ccccc4Cl)C3)C(=O)O)cc2)cc1 (stereo partly drawn) [Example 1.2, (2S)-2-({[1-(2-chlorobenzoyl)-3-piperidinyl]carbonyl}amino)-3-(4′-methyl[1,1′-biphenyl]-4-yl)propanoic acid] | C-D | – |
| O=C(N[C@@H](Cc1ccc(-c2cc(Cl)ccc2Cl)cc1)C(=O)O)C1CCCN(S(=O)(=O)c2cc(Cl)cc(Cl)c2)C1 (some centres unmarked) [Example 1.111] | C-D | – |
| O=C(N[C@@H](Cc1ccc(-c2ccc(Cl)cc2Cl)cc1)C(=O)O)C1CCCN(S(=O)(=O)c2cc(Cl)cc(Cl)c2)C1 (some centres unmarked) [Example 1.102] | C-D | – |
| COc1ccc(S(=O)(=O)N2CCCC(C(=O)N[C@@H](Cc3ccc(NC(=O)N4CCN(C(c5ccccc5)c5ccccc5)CC4)cc3)C(=O)O)C2)cc1OC (some centres unmarked) [Example 4.45] | – | 500 to 2000 |
| Cc1cc(C)c(OC(=O)N2CCCC(C(=O)N[C@@H](Cc3ccc(-c4ccccc4)cc3)C(=O)O)C2)c(C)c1 (some centres unmarked) [Example 1.15] | C-D | – |
| O=C(N[C@@H](Cc1ccc(-c2ccc(Cl)cc2Cl)cc1)C(=O)O)C1CCCN(C(=O)Cc2ccccc2)C1 (some centres unmarked) [Example 1.40] | C-D | – |
| Cc1ccccc1-c1ccc(C[C@H](NC(=O)C2CCCN(c3ncnc(N4CCCCC4)c3F)C2)C(=O)O)cc1 (some centres unmarked) [Example 2.26] | C-D | – |
